Assay results from a compilation of properties of binary mixtures (doi:10.1016/j.molliq.2020.114573).

Assay: xn = mol fraction of the nth substance listed
Details: 101.3 kPa

CC[n+]1ccn(C)c1.O=S(=O)([N-]S(=O)(=O)C(F)(F)F)C(F)(F)F + CC1COC(=O)O1
Details	viscosity [mPa·s]
288.15 K, x1 = 0.1	4.724
288.15 K, x1 = 0.2127	7.25
288.15 K, x1 = 0.3007	9.74
288.15 K, x1 = 0.4227	14.35
288.15 K, x1 = 0.5146	18.39
288.15 K, x1 = 0.6015	23.02
288.15 K, x1 = 0.658	25.85
288.15 K, x1 = 0.7004	28.44
288.15 K, x1 = 0.7601	31.76
288.15 K, x1 = 0.8098	35.48
288.15 K, x1 = 0.8657	38.62
288.15 K, x1 = 0.8868	40.67
288.15 K, x1 = 0.9533	44.93
288.15 K, x1 = 1	47.8
293.15 K, x1 = 0.1	4.184
293.15 K, x1 = 0.2127	6.34
293.15 K, x1 = 0.4227	11.98
293.15 K, x1 = 0.5146	15.03
293.15 K, x1 = 0.6015	19.33
293.15 K, x1 = 0.658	21.63
293.15 K, x1 = 0.7004	23.75
293.15 K, x1 = 0.7601	26.4
293.15 K, x1 = 0.7977	28.37
293.15 K, x1 = 0.8098	29.37
293.15 K, x1 = 0.8657	31.88
293.15 K, x1 = 0.8868	33.56
293.15 K, x1 = 0.9533	36.88
298.15 K, x1 = 0.1	3.737
298.15 K, x1 = 0.3007	7.34
298.15 K, x1 = 0.4227	10.32
298.15 K, x1 = 0.5146	12.87
298.15 K, x1 = 0.6015	16.3
298.15 K, x1 = 0.658	18.51
298.15 K, x1 = 0.7601	22.25
298.15 K, x1 = 0.7977	23.88
298.15 K, x1 = 0.8098	24.66
298.15 K, x1 = 0.8657	26.69
298.15 K, x1 = 0.8868	28.06
298.15 K, x1 = 0.9533	30.76
298.15 K, x1 = 1	32.42
303.15 K, x1 = 0.2127	4.96
303.15 K, x1 = 0.3007	6.46
303.15 K, x1 = 0.5146	11.13
303.15 K, x1 = 0.6015	14.61
303.15 K, x1 = 0.658	16.21
303.15 K, x1 = 0.7004	17.58
303.15 K, x1 = 0.7977	20.34
303.15 K, x1 = 0.8098	20.96
303.15 K, x1 = 0.8657	22.62
303.15 K, x1 = 0.8868	23.76
303.15 K, x1 = 0.9533	25.94
303.15 K, x1 = 1	27.26
308.15 K, x1 = 0.1	3.037
308.15 K, x1 = 0.2127	4.435
308.15 K, x1 = 0.3007	5.73
308.15 K, x1 = 0.5146	9.72
308.15 K, x1 = 0.658	14.09
308.15 K, x1 = 0.7004	15.35
308.15 K, x1 = 0.7977	17.84
308.15 K, x1 = 0.8098	18.26
308.15 K, x1 = 0.8657	19.38
308.15 K, x1 = 0.8868	20.35
308.15 K, x1 = 0.9533	22.14
313.15 K, x1 = 0.1	2.762
313.15 K, x1 = 0.2127	3.99
313.15 K, x1 = 0.3007	5.13
313.15 K, x1 = 0.4227	6.99
313.15 K, x1 = 0.5146	8.55
313.15 K, x1 = 0.6015	10.89
313.15 K, x1 = 0.658	12.21
313.15 K, x1 = 0.7004	13.32
313.15 K, x1 = 0.7977	15.7
313.15 K, x1 = 0.8657	17.2
313.15 K, x1 = 0.8868	17.89
313.15 K, x1 = 0.9533	19.08
318.15 K, x1 = 0.1	2.524
318.15 K, x1 = 0.2127	3.613
318.15 K, x1 = 0.4227	6.24
318.15 K, x1 = 0.5146	7.6
318.15 K, x1 = 0.658	10.64
318.15 K, x1 = 0.7601	12.82
318.15 K, x1 = 0.7977	13.74
318.15 K, x1 = 0.8098	14.09
318.15 K, x1 = 0.8657	15.18
318.15 K, x1 = 0.8868	15.85
318.15 K, x1 = 1	17.37
323.15 K, x1 = 0.1	2.318
323.15 K, x1 = 0.2127	3.292
323.15 K, x1 = 0.3007	4.173
323.15 K, x1 = 0.4227	5.6
323.15 K, x1 = 0.5146	6.79
323.15 K, x1 = 0.658	9.31
323.15 K, x1 = 0.7004	10.12
323.15 K, x1 = 0.7601	11.2
323.15 K, x1 = 0.7977	11.96
323.15 K, x1 = 0.8098	12.34
323.15 K, x1 = 0.8657	13.32
323.15 K, x1 = 0.8868	13.92
323.15 K, x1 = 0.9533	15.09
323.15 K, x1 = 1	15.34
328.15 K, x1 = 0.1	2.138
328.15 K, x1 = 0.3007	3.8
328.15 K, x1 = 0.6015	7.37
328.15 K, x1 = 0.658	8.23
328.15 K, x1 = 0.7004	8.93
328.15 K, x1 = 0.8098	10.81
328.15 K, x1 = 0.8657	11.71
328.15 K, x1 = 0.8868	12.21
328.15 K, x1 = 0.9533	13.31
328.15 K, x1 = 1	13.63
333.15 K, x1 = 0.2127	2.771
333.15 K, x1 = 0.4227	4.607
333.15 K, x1 = 0.5146	5.53
333.15 K, x1 = 0.6015	6.52
333.15 K, x1 = 0.7601	8.7
333.15 K, x1 = 0.7977	9.28
333.15 K, x1 = 0.8098	9.55
333.15 K, x1 = 0.8657	10.33
333.15 K, x1 = 0.8868	10.75
333.15 K, x1 = 0.9533	11.76
333.15 K, x1 = 1	12.17
338.15 K, x1 = 0.2127	2.558
338.15 K, x1 = 0.3007	3.195
338.15 K, x1 = 0.4227	4.205
338.15 K, x1 = 0.5146	5.03
338.15 K, x1 = 0.6015	5.88
338.15 K, x1 = 0.658	6.52
338.15 K, x1 = 0.7004	7.07
338.15 K, x1 = 0.7601	7.75
338.15 K, x1 = 0.7977	8.26
338.15 K, x1 = 0.8098	8.49
338.15 K, x1 = 0.8657	9.18
338.15 K, x1 = 0.8868	9.55
338.15 K, x1 = 0.9533	10.42
338.15 K, x1 = 1	10.88
343.15 K, x1 = 0.1	1.712
343.15 K, x1 = 0.2127	2.37
343.15 K, x1 = 0.3007	2.947
343.15 K, x1 = 0.4227	3.852
343.15 K, x1 = 0.6015	5.33
343.15 K, x1 = 0.658	5.88
343.15 K, x1 = 0.7004	6.33
343.15 K, x1 = 0.8657	8.2
343.15 K, x1 = 0.8868	8.52
343.15 K, x1 = 0.9533	9.3
343.15 K, x1 = 1	9.76
348.15 K, x1 = 0.3007	2.729
348.15 K, x1 = 0.4227	3.549
348.15 K, x1 = 0.5146	4.215
348.15 K, x1 = 0.6015	4.9
348.15 K, x1 = 0.7004	5.77
348.15 K, x1 = 0.7601	6.34
348.15 K, x1 = 0.7977	6.71
348.15 K, x1 = 0.8098	6.83
348.15 K, x1 = 0.8657	7.35
348.15 K, x1 = 0.8868	7.64
348.15 K, x1 = 0.9533	8.33
348.15 K, x1 = 1	8.78
